Laboratory results taken from patent publication US20250243180A1, “TARGETED PROTEIN DEGRADATION” (Monte Rosa Therapeutics AG, priority 2023, published 2025).
Read-outs that look alike come from different tables or passages of the source.

Experiments:
[1] = biological target: CRBN-DDB1 (Homo sapiens (Human), UniProt Q96SW2); assay: Compound binding to CRBN by HTRF assay
Procedure, shortened: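 HTRF displacement of Cy5-thalidomide probe (100 nM) from His-tagged CRBN-DDB1 (2.5 nM) with anti-His terbium cryptate, in HEPES/NaCl/TCEP/EDTA/Tween20 buffer; 11-point 1:3 dilution series, 30 min at ambient temperature. Signal (665/620 nm) normalized to lenalidomide and DMSO controls; EC50 fitted, Ki by Cheng-Prusoff from geometric mean EC50.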

[2] = biological target: NEK7 (Homo sapiens (Human), UniProt Q8TDX7+Q96SW2); assay: NEK7 NanoBiT degradation assay in Cal51 NEK7 NanoBiT cell line; format: cell-based; conditions: Cal51 NEK7 NanoBiT cells, 24 hours; for Dmax: CAL-51
Procedure, shortened: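 Cal51 cells with CRISPR knock-in HiBiT-tagged endogenous NEK7 plus stable LgBiT, in live-cell Endurazine medium, seeded 16 h before dosing. Compounds at final 1 μM to 0.05 nM for 24 h at 37 °C, then luminescence read. Response normalized to plate controls and fitted with a 4-parameter logistic giving EC50.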

[3] = NEK7 degradation, read-out: NanoBiT Dmax
[4] = NEK7 degradation, read-out: NanoBiT DC50

CRBN-DDB1, sequence (Q96SW2 whole entry): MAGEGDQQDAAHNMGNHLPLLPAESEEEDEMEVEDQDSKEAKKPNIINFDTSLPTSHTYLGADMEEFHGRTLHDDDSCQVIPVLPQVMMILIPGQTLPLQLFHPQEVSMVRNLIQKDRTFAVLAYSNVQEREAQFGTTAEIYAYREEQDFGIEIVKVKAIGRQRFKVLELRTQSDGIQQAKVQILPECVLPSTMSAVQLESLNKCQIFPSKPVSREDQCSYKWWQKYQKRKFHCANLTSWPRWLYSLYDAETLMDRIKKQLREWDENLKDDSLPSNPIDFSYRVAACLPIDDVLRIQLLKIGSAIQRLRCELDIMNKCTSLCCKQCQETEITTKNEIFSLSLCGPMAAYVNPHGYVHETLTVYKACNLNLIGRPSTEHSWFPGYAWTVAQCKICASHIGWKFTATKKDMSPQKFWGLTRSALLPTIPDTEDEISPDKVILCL
CRBN-DDB1, sequence (Q16531 whole entry partner): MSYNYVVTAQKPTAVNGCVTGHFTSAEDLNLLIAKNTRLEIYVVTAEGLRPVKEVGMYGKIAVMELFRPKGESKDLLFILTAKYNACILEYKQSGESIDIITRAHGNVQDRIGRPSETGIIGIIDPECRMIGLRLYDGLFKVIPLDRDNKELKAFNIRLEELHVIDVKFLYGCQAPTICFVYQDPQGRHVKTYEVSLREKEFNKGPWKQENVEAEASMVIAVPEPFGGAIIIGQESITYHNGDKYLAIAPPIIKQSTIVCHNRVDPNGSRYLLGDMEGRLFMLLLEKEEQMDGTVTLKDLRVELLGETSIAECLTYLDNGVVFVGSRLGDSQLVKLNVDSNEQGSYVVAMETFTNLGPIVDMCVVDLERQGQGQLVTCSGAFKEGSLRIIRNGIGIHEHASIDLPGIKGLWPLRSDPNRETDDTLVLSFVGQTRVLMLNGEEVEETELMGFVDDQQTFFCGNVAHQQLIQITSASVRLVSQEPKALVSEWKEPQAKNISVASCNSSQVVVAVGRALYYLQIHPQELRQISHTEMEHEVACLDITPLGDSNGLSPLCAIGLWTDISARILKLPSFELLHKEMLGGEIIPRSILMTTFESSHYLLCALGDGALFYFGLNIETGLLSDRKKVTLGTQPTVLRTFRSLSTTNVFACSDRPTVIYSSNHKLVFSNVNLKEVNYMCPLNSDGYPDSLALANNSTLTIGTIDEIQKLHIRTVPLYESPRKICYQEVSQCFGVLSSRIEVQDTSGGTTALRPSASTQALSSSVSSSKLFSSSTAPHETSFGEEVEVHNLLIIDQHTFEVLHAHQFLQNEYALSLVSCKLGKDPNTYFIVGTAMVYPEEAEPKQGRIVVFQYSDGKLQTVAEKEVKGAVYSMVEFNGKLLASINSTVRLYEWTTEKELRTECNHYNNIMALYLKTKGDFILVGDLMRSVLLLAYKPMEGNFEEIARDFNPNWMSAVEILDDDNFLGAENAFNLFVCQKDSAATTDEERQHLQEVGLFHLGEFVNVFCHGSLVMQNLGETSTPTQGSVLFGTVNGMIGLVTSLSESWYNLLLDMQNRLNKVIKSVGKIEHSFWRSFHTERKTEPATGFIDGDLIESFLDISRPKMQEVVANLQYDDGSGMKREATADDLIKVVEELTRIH
NEK7, sequence (Q8TDX7 whole entry): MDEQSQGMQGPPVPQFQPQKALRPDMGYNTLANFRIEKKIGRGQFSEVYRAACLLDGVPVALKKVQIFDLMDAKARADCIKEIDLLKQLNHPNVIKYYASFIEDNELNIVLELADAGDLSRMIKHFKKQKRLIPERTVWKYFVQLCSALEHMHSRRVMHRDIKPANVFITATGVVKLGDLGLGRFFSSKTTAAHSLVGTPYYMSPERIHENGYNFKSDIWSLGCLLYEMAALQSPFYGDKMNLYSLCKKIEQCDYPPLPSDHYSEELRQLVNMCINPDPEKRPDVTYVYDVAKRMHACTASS
NEK7, sequence (Q96SW2 whole entry): as the sequence (Q96SW2 whole entry) above
NEK7, sequence (Q16531 2-1140 partner): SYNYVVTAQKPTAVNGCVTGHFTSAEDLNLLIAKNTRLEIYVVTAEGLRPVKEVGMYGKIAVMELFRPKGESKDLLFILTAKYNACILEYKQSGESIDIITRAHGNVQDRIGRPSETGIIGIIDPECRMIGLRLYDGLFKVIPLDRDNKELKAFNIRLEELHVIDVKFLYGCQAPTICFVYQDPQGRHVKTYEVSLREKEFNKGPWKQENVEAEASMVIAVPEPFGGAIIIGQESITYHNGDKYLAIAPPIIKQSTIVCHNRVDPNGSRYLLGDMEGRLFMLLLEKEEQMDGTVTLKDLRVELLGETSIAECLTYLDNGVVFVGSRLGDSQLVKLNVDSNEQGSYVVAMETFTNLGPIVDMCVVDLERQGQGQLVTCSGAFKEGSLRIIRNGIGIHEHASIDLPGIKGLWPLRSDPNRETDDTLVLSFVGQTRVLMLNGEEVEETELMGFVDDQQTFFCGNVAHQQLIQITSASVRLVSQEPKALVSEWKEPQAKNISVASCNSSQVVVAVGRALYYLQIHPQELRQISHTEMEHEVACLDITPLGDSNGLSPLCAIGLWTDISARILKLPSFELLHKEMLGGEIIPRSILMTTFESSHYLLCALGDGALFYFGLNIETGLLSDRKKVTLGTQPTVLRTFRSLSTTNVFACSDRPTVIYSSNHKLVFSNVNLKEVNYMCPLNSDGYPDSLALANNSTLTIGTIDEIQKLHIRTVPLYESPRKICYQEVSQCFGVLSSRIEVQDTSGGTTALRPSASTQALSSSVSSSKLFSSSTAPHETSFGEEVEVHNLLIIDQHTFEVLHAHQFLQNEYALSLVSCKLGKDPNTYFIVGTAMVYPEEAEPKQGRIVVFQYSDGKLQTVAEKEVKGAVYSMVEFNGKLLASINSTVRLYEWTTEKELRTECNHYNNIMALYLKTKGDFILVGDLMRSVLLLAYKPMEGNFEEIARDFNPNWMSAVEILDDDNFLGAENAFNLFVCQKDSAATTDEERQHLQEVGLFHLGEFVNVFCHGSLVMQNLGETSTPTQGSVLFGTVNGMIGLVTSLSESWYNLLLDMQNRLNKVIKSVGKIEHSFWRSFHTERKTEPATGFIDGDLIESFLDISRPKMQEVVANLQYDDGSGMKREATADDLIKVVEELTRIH

Structure (SMILES) | EC50 [1] | EC50 ([1]; HTRF class, Cereblon binding) | Dmax ([2]; read-out: NEK7 NanoBiT Dmax) | Dmax [2, 3] | DC50 ([2]; read-out: NEK7 NanoBiT DC50) | DC50 [2, 4]
O=C1CCC(c2c(Cl)cc(CNC(=O)C3(c4ccc(F)cc4)CC(F)(F)C3)cc2Cl)C(=O)N1 (stereo not drawn) [Compound 139, N-(3,5-dichloro-4-(2,6-dioxopiperidin-3-yl)benzyl)-3,3-difluoro-1-(4-fluorophenyl)cyclobutane-carboxamide] | 40 nM | ≤ 100 nM | 90% | > 75% | 8 nM | ≤ 100 nM
O=C1CCC(c2c(Cl)cc(CNC(=O)C3(c4ccc(F)cc4)COC3)cc2Cl)C(=O)N1 (stereo not drawn) [Compound 140] | 90 nM | ≤ 100 nM | 89% | > 75% | 14 nM | ≤ 100 nM
O=C1CCC(c2c(Cl)cc(CNC(=O)C3(c4ccc(F)cc4)CCOC3)cc2Cl)C(=O)N1 (stereo not drawn) [Compound 141] | 20 nM | ≤ 100 nM | 91% | > 75% | 6 nM | ≤ 100 nM
O=C1CCC(c2c(Cl)cc(CNC(=O)C3(c4ccc(F)cc4)CCOCC3)cc2Cl)C(=O)N1 (stereo not drawn) [Compound 142] | 50 nM | ≤ 100 nM | 94% | > 75% | 3 nM | ≤ 100 nM
O=C1CCC(c2c(Cl)cc(CNC(=O)C3(c4ccncc4)CCCC3)cc2Cl)C(=O)N1 (stereo not drawn) [Compound 143, N-(3,5-dichloro-4-(2,6-dioxopiperidin-3-yl)benzyl)-1-(pyridin-4-yl)cyclopentane-1-carboxamide] | 40 nM | ≤ 100 nM | 92% | > 75% | 3 nM | ≤ 100 nM
O=C1CCC(c2c(Cl)cc(CNC(=O)C3(c4ccncc4)CCC3)cc2Cl)C(=O)N1 (stereo not drawn) [Compound 144] | 50 nM | ≤ 100 nM | 78% | > 75% | 6 nM | ≤ 100 nM
Cc1cc(C(C)(C)C(=O)NCc2cc(Cl)c(C3CCC(=O)NC3=O)c(Cl)c2)no1 (stereo not drawn) [Compound 145] | 430 nM | 100 to 1000 nM | 86% | > 75% | 10 nM | ≤ 100 nM
CC(C)(C(=O)NCc1cc(Cl)c(C2CCC(=O)NC2=O)c(Cl)c1)c1cc2ocnc2cn1 (stereo not drawn) [Compound 146] | 180 nM | 100 to 1000 nM | 91% | > 75% | 5 nM | ≤ 100 nM
CC(C)(O)c1cnc(C(C)(C)C(=O)NCc2cc(Cl)c(C3CCC(=O)NC3=O)c(Cl)c2)nc1 (stereo not drawn) [Compound 147] | 550 nM | 100 to 1000 nM | 52% | 50 to 75% | 776 nM | 100 to 1000 nM
Cn1cccc(C(C)(C)C(=O)NCc2cc(Cl)c(C3CCC(=O)NC3=O)c(Cl)c2)c1=O (stereo not drawn) [Compound 148, N-(3,5-dichloro-4-(2,6-dioxopiperidin-3-yl)benzyl)-2-methyl-2-(1-methyl-2-oxo-1,2-dihydropyridin-3-yl)propanamide] | 150 nM | 100 to 1000 nM | 58% | 50 to 75% | 176 nM | 100 to 1000 nM
CC(C)(C(=O)NCc1cc(Cl)c(C2CCC(=O)NC2=O)c(Cl)c1)c1cc(F)ccn1 (stereo not drawn) [Compound 149] | 130 nM | 100 to 1000 nM | 85% | > 75% | 12 nM | ≤ 100 nM
Cc1nccc(C(C)(C)C(=O)NCc2cc(Cl)c(C3CCC(=O)NC3=O)c(Cl)c2)n1 (stereo not drawn) [Compound 150] | 150 nM | 100 to 1000 nM | 53% | 50 to 75% | 91 nM | ≤ 100 nM
CC(C)(C(=O)NCc1cc(Cl)c(C2CCC(=O)NC2=O)c(Cl)c1)c1cc(C2CC2)ncn1 (stereo not drawn) [Compound 151] | 480 nM | 100 to 1000 nM | 60% | 50 to 75% | 88 nM | ≤ 100 nM
CC(C)(C(=O)NCc1cc(Cl)c(C2CCC(=O)NC2=O)c(Cl)c1)c1ccnc(C(F)F)n1 (stereo not drawn) [Compound 156, N-(3,5-dichloro-4-(2,6-dioxopiperidin-3-yl)benzyl)-2-(2-(difluoromethyl)pyrimidin-4-yl)-2-methylpropanamide] | 330 nM | 100 to 1000 nM | 54% | 50 to 75% | 435 nM | 100 to 1000 nM
CC(C)(C(=O)NCc1cc(Cl)c(C2CCC(=O)NC2=O)c(Cl)c1)c1cc(C#N)ccn1 (stereo not drawn) [Compound 157] | 190 nM | 100 to 1000 nM | 60% | 50 to 75% | 178 nM | 100 to 1000 nM
Cc1cncnc1C(C)(C)C(=O)NCc1cc(Cl)c(C2CCC(=O)NC2=O)c(Cl)c1 (stereo not drawn) [Compound 158] | 320 nM | 100 to 1000 nM | 91% | > 75% | 8 nM | ≤ 100 nM

Structure (SMILES) | EC50 [1] | EC50 ([1]; HTRF class, Cereblon binding) | Dmax ([2]; read-out: NEK7 NanoBiT Dmax) | Dmax [2, 3] | DC50 ([2]; read-out: NEK7 NanoBiT DC50) | DC50 [2, 4]
CC(C)(C(=O)NCc1cc(Cl)c(C2CCC(=O)NC2=O)c(Cl)c1)c1cc(C(F)F)ncn1 (stereo not drawn) [Compound 159] | 280 nM | 100 to 1000 nM | 79% | > 75% | 28 nM | ≤ 100 nM
Cc1ccnc(C(C)(C)C(=O)NCc2cc(Cl)c(C3CCC(=O)NC3=O)c(Cl)c2)n1 (stereo not drawn) [Compound 160] | 200 nM | 100 to 1000 nM | 76% | > 75% | 34 nM | ≤ 100 nM
CC(C)(C(=O)NCc1cc(Cl)c(C2CCC(=O)NC2=O)c(Cl)c1)c1cnccn1 (stereo not drawn) [Compound 161] | 230 nM | 100 to 1000 nM | 69% | 50 to 75% | 54 nM | ≤ 100 nM
Cc1cnc(C(C)(C)C(=O)NCc2cc(Cl)c(C3CCC(=O)NC3=O)c(Cl)c2)o1 (stereo not drawn) [Compound 163] | 250 nM | 100 to 1000 nM | 80% | > 75% | 18 nM | ≤ 100 nM
Cc1noc(C(C)(C)C(=O)NCc2cc(Cl)c(C3CCC(=O)NC3=O)c(Cl)c2)n1 (stereo not drawn) [Compound 164] | 240 nM | 100 to 1000 nM | 68% | 50 to 75% | 66 nM | ≤ 100 nM
CC(C)(C(=O)NCc1cc(Cl)c(C2CCC(=O)NC2=O)c(Cl)c1)c1ncc(N2CCC2)cn1 (stereo not drawn) [Compound 165] | 170 nM | 100 to 1000 nM | 69% | 50 to 75% | 47 nM | ≤ 100 nM
CC(C)(C(=O)NCc1cc(Cl)c(C2CCC(=O)NC2=O)c(Cl)c1)N1CCc2ccccc21 (stereo not drawn) [Compound 166, N-(3,5-dichloro-4-(2,6-dioxopiperidin-3-yl)benzyl)-2-(indolin-1-yl)-2-methylpropanamide] | 90 nM | ≤ 100 nM | 56% | 50 to 75% | 203 nM | 100 to 1000 nM
CC(C)(C(=O)NCc1cc(Cl)c(C2CCC(=O)NC2=O)c(Cl)c1)c1nc2ccccc2o1 (stereo not drawn) [Compound 167] | 90 nM | ≤ 100 nM | 96% | > 75% | 1 nM | ≤ 100 nM
CC(C)(C(=O)NCc1cc(Cl)c(C2CCC(=O)NC2=O)c(Cl)c1)c1nccc(C2CC2)n1 (stereo not drawn) [Compound 168] | 150 nM | 100 to 1000 nM | 57% | 50 to 75% | 137 nM | 100 to 1000 nM
O=C1CCC(c2c(Cl)cc(CNC(=O)C3(c4ncccn4)CCC3)cc2Cl)C(=O)N1 (stereo not drawn) [Compound 169, N-(3,5-dichloro-4-(2,6-dioxopiperidin-3-yl)benzyl)-1-(pyrimidin-2-yl)cyclobutane-1-carboxamide] | 180 nM | 100 to 1000 nM | 75% | 50 to 75% | 42 nM | ≤ 100 nM
CC(C)(C(=O)NCc1cc(Cl)c(C2CCC(=O)NC2=O)c(Cl)c1)N1Cc2ccccc2C1 (stereo not drawn) [Compound 170, N-(3,5-dichloro-4-(2,6-dioxopiperidin-3-yl)benzyl)-2-(isoindolin-2-yl)-2-methylpropanamide] | 180 nM | 100 to 1000 nM | 73% | 50 to 75% | 55 nM | ≤ 100 nM
CC(C)(C(=O)NCc1cc(Cl)c(C2CCC(=O)NC2=O)c(Cl)c1)c1cccc2ocnc12 (stereo not drawn) [Compound 171] | 120 nM | 100 to 1000 nM | 90% | > 75% | 7 nM | ≤ 100 nM
Cn1c(F)cc(C(C)(C)C(=O)NCc2cc(Cl)c(C3CCC(=O)NC3=O)c(Cl)c2)cc1=O (stereo not drawn) [Compound 172] | 190 nM | 100 to 1000 nM | 97% | > 75% | 2 nM | ≤ 100 nM
Cc1cc(C(C)(C)C(=O)NCc2cc(Cl)c(C3CCC(=O)NC3=O)c(Cl)c2)ncn1 (stereo not drawn) [Compound 173] | 230 nM | 100 to 1000 nM | 85% | > 75% | 19 nM | ≤ 100 nM
CC(C)(C(=O)NCc1cc(Cl)c(C2CCC(=O)NC2=O)c(Cl)c1)c1nccc(C(F)(F)F)n1 (stereo not drawn) [Compound 174] | 180 nM | 100 to 1000 nM | 77% | > 75% | 30 nM | ≤ 100 nM
CC(C)(C(=O)NCc1cc(Cl)c(C2CCC(=O)NC2=O)c(Cl)c1)c1ncc(C(F)(F)F)cn1 (stereo not drawn) [Compound 175] | 280 nM | 100 to 1000 nM | 94% | > 75% | 6 nM | ≤ 100 nM
